Test results reported in US10898583B2, “Harnessing quantum dots to study, visualize, and promote immune tolerance” (University of Maryland, College Park, priority 2016, dated 2021).
Where no end group is shown, it is not given here.

What was measured:
[1] = system: transgenic 2D2 CD4+ T cells; test: 2D2 T cell proliferation (proliferation dye dilution) in DC co-culture; type: cell-based, mouse; settings: DCs treated with CpG; 17 or 52 peptides per QD; 72 hours
Protocol: Stained cells were analyzed by flow cytometry.

[2] = system: experimental autoimmune encephalomyelitis (EAE); test: EAE induction, MOG-QD treatment and monitoring; type: in vivo, C57BL/6 mice; settings: single s.c. injection day 2, through day 21
Protocol: C57BL/6 mice (female, 10-12 weeks) were induced with EAE following a defined protocol from Hooke Labs. Briefly, mice were injected s.c. with an emulsion of MOG and complete Freund's adjuvant (CFA) at the upper and lower back on day 0. Pertussis toxin was also administered intraperitoneally 2 and 24 hours after MOG/CFA injection. Beginning at day 7, mice were weighed to detect changes from day 0 body weight (a symptom of disease) and scored for disease severity with respect to paralysis. A standard clinical scoring rubric was used: 0—no symptoms, 1—limp tail, 2—weakness of hind legs, 3—hind limb paralysis, 4—hind limb paralysis and partial front limb paralysis, 5—moribund.^[6, 7, 15]
Mice induced with EAE were randomly divided into groups of 8-10 mice each. A control group was left untreated in each experiment. In one experiment, additional groups were treated by s.c. injection at the tailbase with 0.2 nanomoles QDs, 70 μg MOG, 70 μg CTRL peptide on 0.2 nanomoles QDs (100:1), or 70 μg MOG peptide on 0.2 nanomoles QDs (100:1). Similar experiments contained two treatment groups: 14.3 μg MOG on 0.4 nanomoles QDs (17:1) or 73 μg MOG on 0.2 nanomoles QDs (52:1). The final experiment design contained three treatment groups: 70 μg MOG on 0.5 nanomoles QDs (25:1), 70 μg MOG on 0.4 nanomoles QDs (52:1), or 70 μg MOG on 0.3 nanomoles QDs (65:1).

Sequence	2D2 T cell proliferation [1]	disease progression (clinical score) ([2]; 100:1, 70 μg peptide on 0.2 nanomoles QDs or component controls)	disease incidence ([2]; 100:1 or component controls)
HHHHHSAAAAAGISQAVHAAHAEINEAGR (not fully specified) [free CTRL peptide]	neither CTRL-QDs nor free CTRL peptide caused proliferation		
HHHHHSAAAAAGMEVGWYRSPFSRVVHLYRNGK [free MOG]	equivalent	none of the groups except MOG-QDs caused significant differences in clinical scores	no differences in disease incidence
